SMILES	melting point
N#Cc1c(N2CCN(C(=O)c3ccco3)CC2)c2cc(F)ccc2n(Cc2ccc(F)cc2)c1=O	248 °C
CCc1cc2cc(OC)c(Cl)c(Cl)c2s1	73 to 74.5 °C
COc1ccc(CCNc2nc(C)c(CCO)c(=O)n2C)cc1	210 °C
CCOC(=O)C(NC(=O)CC(=O)C=Cc1ccccc1[N+](=O)[O-])C(C)C (stereo unspecified)	106 to 107 °C
CN(C)Cc1c[nH]c2ncccc12	161 to 162 °C
O=c1[nH]c(-c2cccc3ccccc23)nc2ccc(N3CCOCC3)cc12	291 to 293 °C
O=C(O)C1Cc2c([nH]c3ccccc23)CN1C(=S)SCC=Cc1ccccc1 (stereo unspecified)	200 to 202 °C
CCCn1nc2c(N)nc3ccccc3c2c1CCNC(=O)C1CC1	215 to 217 °C
CC1(C)OCC(CBr)(CBr)CO1	56 to 58 °C
CNC(=O)n1c(N=Cc2ccc([N+](=O)[O-])o2)nc2ccccc21	170 to 171 °C
O=C(O)[C@H](Cc1cccc(OCC(F)(F)C(F)F)c1)[C@@H](O)c1ccc(F)cc1 (racemic)	114 to 115 °C
CC1(C)CC(C)(O)C2C3CCCCC3C2(C)C1 (stereo unspecified)	76.6 to 77.4 °C
O=Cc1c[nH]c2c1ccc1c3ccccc3[nH]c12	> 290 °C
COC(=O)c1cccc2nc(SCCCN3CCN(CC(=O)Nc4c(SC)cc(C)nc4SC)CC3)oc12	76 to 79 °C
COC(=O)COc1ccc(I)cc1	69 to 70 °C
CN(c1ccc(O)cc1)c1cc2ccc(F)cc2c(O)n1	249 °C
O=C(O)C(O)c1ccccc1[N+](=O)[O-] (stereo unspecified)	137 to 139 °C
COc1cc(OC)c(C2CCN(C)CC2=O)c(OC)c1 (single isomer, unassigned; (+))	110 to 112 °C
CC1(C)Oc2ccc(CO)cc2[C@@H](N2CCCC2=O)[C@@H]1O (relative stereo)	175 to 178 °C
Fc1ccc(OCCCN2CCN(c3ncc4ccccc4n3)CC2)cc1	126 to 128 °C
O=C(NC[C@H]1CN(c2ccc(N3CCN(C(=O)OCc4ccccc4)CC3)c(F)c2)C(=O)O1)C(F)F	147 °C
CC(C)OP(=O)(/C=C/CCn1cnc2c(Cl)ncnc21)OC(C)C	105 °C
O=C(Nc1csc(-c2cccnc2)n1)c1nnn[nH]1	263 to 265 °C
CC(C)(C)COc1ccc([N+](=O)[O-])cc1	36 °C

SMILES	melting point
O=S(=O)(NCCc1ccc(CCO)cc1)c1cccc(C(F)(F)F)c1	70 to 72 °C
CC(=O)OCC(=O)C12OCOC1CC1C3CCC4=CC(=O)C=CC4(C)C3(F)C(O)CC12C (stereo unspecified)	283 to 285 °C
CCOC(=O)C=Cc1ccc(OCc2nc(-c3ccccc3)oc2C)cc1	145 to 146 °C
CNCCOc1cccc2c1c1cc(C)ccc1n2Cc1ccccc1	96 to 96.8 °C
CCOC(=O)c1c[nH]cc1C(=O)OCC	148 to 149 °C
CCOC(=O)c1c(C)c(C#N)c(N)c(C#N)c1C	206 °C
COc1ccc(C2=CCCCc3cc(OCc4ccccc4)ccc32)cc1	76 to 78 °C
O=C1[C@H]2CCC[C@H]2N(C(=O)CBr)c2ccccc2N1Cc1ccc([N+](=O)[O-])cc1 (relative stereo)	160 to 162 °C
O=C(O)C(Cc1cccc2c1CCCC2)Cc1cccc2c1CCCC2	144 to 146 °C
CCOc1cc(F)cc2c1c(CCN(C)C)cn2CC	77.1 to 78.2 °C
CC(=O)Nc1ccc(C2=NNC(=S)NC2C)cc1 (stereo unspecified)	222 to 226 °C
c1cn(CCCCn2ccnc2)cn1	84 to 86 °C
O=c1[nH]c2ccc(S(=O)CCN3CCC(Cc4ccc(F)cc4)CC3)cc2o1 (stereo unspecified)	202 to 204 °C
COc1cc(/C=C/C=C/C(=O)NCCCC2CNCCC2c2c[nH]c3ccccc23)cc(OC)c1O (stereo unspecified)	176 to 179 °C
N#CC(Cc1ccccc1)(Cc1ccccc1)C(=O)O	194 °C
NCc1ccc(F)cc1C(F)(F)C(F)(F)c1ccccc1	52.5 to 54 °C
O=C(O)c1ccc(C2(F)CC2c2ccc(Cl)cc2)cc1 (stereo unspecified)	204 °C
CCCc1cc(NCc2ccc3c(c2)OCO3)nc(SCC(N)=NO)n1	145 to 147 °C
CC(C)C(N)=NC(=Nc1ccccc1)N1CCOCC1	123 to 126 °C
CS(=O)(=O)c1ccc(C2=C(c3ccccc3)C(=O)C3(CCCCC3)O2)cc1	126 to 127 °C
CC(C(=O)O)c1ccc(C2CCCCC2)c2ccccc12 (stereo unspecified)	150 °C
Fc1ccc(-c2nccc3c(CCl)cccc23)cc1	110 to 112 °C
COc1ccc(S(=O)(=O)[C@H](CCCCc2ccccc2)[C@@H](CCS(=O)(=O)c2ccccc2)C(=O)NO)cc1OC	78 to 81 °C

The next lines start with the values.

melting point	SMILES
167 to 168 °C	Clc1ccc2c(c1)C(c1ccccc1Cl)OCc1nnc(Br)n1-2 (stereo unspecified)
> 350 °C	Cc1cc(-n2cc(C#N)nc2C)cc2ccc(=O)[nH]c12
128 °C	Cc1cc(Cl)ccc1CCN(C(=O)C(C)Cl)c1ccccc1 (stereo unspecified)
205 to 207 °C	O=C(O)c1cn(-c2cnsn2)c2c(F)c(F)c(F)cc2c1=O
199 to 200 °C	CC(C)(C)NC(=O)N1CCN(c2ccc3ncc(Br)n3n2)CC1
247 to 250 °C	O=[N+]([O-])c1ccc(CO)c(Nc2nccc(-c3cccnc3)n2)c1
121 to 123 °C	CCOC(=O)c1cnc(C)nc1NCc1ccc(-c2ccccc2-c2nnn[nH]2)cc1
187 to 188 °C	O=C1Nc2cccnc2Nc2ccc(Br)cc21
135 to 137 °C	COc1cc(-c2ncc(C(F)(F)F)cc2Cl)ccc1C#N
236 to 238 °C	CCOC(=O)c1cn(CC)c2cc(-c3csc(C(C)NC(C)=O)n3)c(F)cc2c1=O (stereo unspecified)
153 to 162 °C	O=C(O)CCCc1cc2nc(Cl)ccc2n1S(=O)(=O)c1ccc2ncccc2c1
266 °C	O=Cc1cccc(-c2cnc3cnc(-c4ccc(O)cc4)nc3c2)c1
151 to 153 °C	CC(C)(C)OC(=O)NCCCn1c(CCCOc2ccccc2)nc2c(N)nc3ccccc3c21
249 °C	O=C(Nc1ccc(CNc2nc(N3CCC3)nc3ccccc23)cc1)c1ccc(F)cc1
213 to 214 °C	CC(C)(C)c1ccc(CNC(=O)C(Cc2ccccc2)NC(=O)Nc2n[nH]c(=S)s2)cc1 (stereo unspecified)
119 to 121 °C	CC(=O)c1ccc(NS(C)(=O)=O)c(Oc2ccc(Cl)cc2Cl)c1
157 to 160 °C	CCCCc1nc(C(O)C(C)(C)C)c(C(N)=O)n1Cc1ccc(-c2ccccc2-c2nnn[nH]2)cc1 (stereo unspecified)
189 to 191 °C	CN(C)c1ccc(C(=O)N2CCC(c3[nH]nc4c3C(=O)c3c(NC(=O)NN5CCOCC5)cccc3-4)CC2)cc1
89 to 90 °C	CNc1cc(Oc2cccc(C(F)(F)F)c2)nc(C(=O)NC(C)C)c1
233 to 234 °C	CC(C)(C)C(NC(=O)c1cc(Cl)cc(Cl)c1)Nc1c(Nc2cccnc2Cl)c(=O)c1=O (stereo unspecified)
188 to 189 °C	Cc1nnc(-c2ccc3occ(-c4cc(C(F)(F)F)ccc4Cl)c3c2)o1
202 to 204 °C	CCN1CCC(NC(=O)Cn2c(-c3ccc(Br)cc3)nc3cccnc32)C1 (stereo unspecified)
179 to 180 °C	CC(C)(C)c1ccc(OCC(=O)Nc2nnc(-c3cccc(Oc4cccc(C(F)(F)F)c4)c3)s2)cc1
130 to 135 °C	COc1cc(Nc2c(C#N)cnc3cc(-c4ccc(CNCCc5ccccn5)o4)ccc23)c(Cl)cc1Cl

Source: a melting point compilation (Tetko et al.; mined from patent text by program, amines drawn as free bases though some values may be those of a salt)
